Experimental data: US11427586B2, “1,2,4-oxadiazole derivatives as liver X receptor agonists” (NOVARTIS AG, priority 2019, dated 2022)
Like-named read-outs stand apart in the source and are kept apart here.

Columns and labels:
SZ95 sebocytes = test: Sentinel Lipid Assay (SLA), desaturation index in SZ95 sebocytes; assay type: cell-based; settings: Homo sapiens, 72 h; for EC50: desaturation index, lowest dose used 4.6 nM, read-out: SLA EC50
Method: Sentinel Lipid Assay (SLA)
The sentinel lipid assay was used quantify the change in the global desaturation index in SZ95 sebocytes upon administration of certain LXR agonist compounds provided herein. The assay measures a smaller subset of lipid analytes in meibum (termed “sentinel lipids”) which would model the global changes the population of both saturated and desaturated lipids in the cells. In order to define this smaller subset of lipids, a complete lipid profile was recorded on dose response curves (eight levels from 4 nM to 10 uM) of Compounds 1-72. An elastic net regression model was applied separately to both the saturated and desaturated lipids to determine the minimum combination of coefficients and analytes, which could be used to adequately model the total population of lipids. The elastic net model was able to reduce the behavior of 425 lipids to 11 lipids and the correlation between the desaturation indices observed using the complete set of lipids with from the 11 sentinel lipids was 0.96.
A medium throughput assay was created using this reduced set of sentinel lipids. A single batch is defined as triplicate examples of three unique plates (i.e., a single batch of cells is used to create nine plates for LC-MSMS analysis). Lipids were extracted from the cells using a 1:1 mixture of methylene chloride/methanol containing 10 nM of deuterated standards of triglycerides, which are used as internal standards for quantitating the lipid abundance. The lipids were separated prior to mass spectrometric analysis using a five minute HPLC gradient. The abundance of the sentinel lipids and the internal standards are measured using multiple reaction monitor mode (MRM) on a triple quadrupole mass spectrometer. The data was transformed from total ion current to nmoles/10^6 cells, which are multiplied by the coefficients from the elastic net model to determine the effective desaturated and saturated content, and therein the desaturation index of the dosed cells. In order to compare compounds from multiple batches with one another, the measure raw desaturation index was normalized by dividing it by the desaturation index of the DMSO dosed cells, and all data was assessed as the fraction by which the compound increases the desaturation index above 1.
SZ95 (immortalized human sebaceous gland cells) cells were seeded in Greiner bio-one 96-well polypropylene plates that were pre-treated with 50 μg/mL Human Plasma Fibronectin (Thermo Fisher Scientific) at a density of 10^4 cells/135 μl. Cells were incubated in a humidified incubator with 5% CO2 at 37° C. overnight. Test compounds were diluted at a ratio of 1:3 and added to cells at final concentrations starting from 10 μM. 2-(3-(3-((2-chloro-3-(trifluoromethyl)benzyl)(2,2-diphenylethyl)amino)propoxy)phenyl)acetic acid was used as a positive control reference compound in each plate. Cells in the assay plate were incubated in a humidified incubator with 5% CO2 at 37° C. for 72 h.
Culture medium was removed from the cells and cells in culture plates were washed with ice cold phosphate buffered saline three times. Plates were heat sealed and stored in a −80° C. freezer prior to Sentinel lipid assay. The Amax value refers to the percent EC50 of the tested compound compared to a reference compound, 2-(3-(3-((2-chloro-3-(trifluoromethyl)benzyl)(2,2-diphenylethyl)amino)propoxy)phenyl)acetic acid.

SCD1 = test: Measurement of SCD1 expression in SZ95-SCD1-HiBit cells (HiBiT assay); assay type: cell-based; settings: Homo sapiens, 48 h; for EC50: SCD1 protein production, luminescence, initial dilution 1:3 in DMSO, read-out: HiBit EC50
Text: Measurement of SCD1 Expression in SZ95-SCD1-HiBit Cells
SCD1 expression levels in SZ95 cells were quantitated using the HiBiT system (Promega) in which a small peptide sequence (SmBiT) with a larger protein (LgBiT) reconstitutes luciferase activity and can generate a luminescent signal used for quantitation. SZ95-SCD1-HiBit cells were generated by editing the SCD1 gene of SZ95 cells resulting in the addition of an 8 amino acid linker sequence (gssggssg, SEQ ID NO:1) followed by an 11-amino acid SmBiT sequence (vsgwrlfkkis, SEQ ID NO:2) at the carboxy-terminus of the SCD1 protein. The gRNA targeting sequence used was […] (SEQ ID NO: 3) and the SCD1 insertion oligonucleotide encoding the SmBiT sequence was:
SZ95-SCD1-HiBit cells were seeded in 384-well cell culture white plates at a density of 3000 cells/30 μl. Water was added to edge wells to avoid evaporation. Cells were incubated in a humidified incubator with 5% CO2 at 37° C. overnight. Tested compounds were diluted at a ratio of 1:3 in DMSO using an Agilent BRAVO Automated Liquid Handling Platform and, after further serial dilutions, added to cells at final concentrations starting from 18 μM. 2-(3-(3-((2-chloro-3-(trifluoromethyl)benzyl)(2,2-diphenylethyl)amino)propoxy)phenyl)acetic acid was used as a reference compound in each plate. Cells in the assay plate were incubated in a humidified incubator with 5% CO2 at 37° C. for 48 h.
The assay plates were removed from the incubator and allowed to equilibrate to room temperature. Nano-Glo® HiBiT Detection Reagent (Promega; a mixture of Nano-Glo HiBiT Detection Buffer, Nano-Glo HiBiT Detection Substrate, and LgBiT protein, according to the manufacturer's instructions) was added into assay plates, at a volume equal to cell culture medium in each well. Plates were placed on an orbital shaker at a speed of 300-600 rpm for 10 min at room temperature, and read on an EnVision Plate Reader using luminescence detection with a 1 second read time.
The assay measures the increase in SCD1 protein production in vitro. Amax refers to the percent EC50 of the tested compound compared to a reference compound, 2-(3-(3-((2-chloro-3-(trifluoromethyl)benzyl)(2,2-diphenylethyl)amino)propoxy)phenyl)acetic acid.

[1] = normalized Amax based on the reference compound Amax of 100%, read-out: SLA Normalized Amax
[2] = SZ95 cells, compared to reference compound, read-out: SLA Amax
[3] = normalized Amax based on the reference compound Amax of 100%, read-out: HiBit Normalized Amax
[4] = SZ95-SCD1-HiBit cells, compared to reference compound, read-out: HiBit Amax

Row | Structure (SMILES) | EC50 (SZ95 sebocytes; SZ95 cells) [nM] | EC50 (SCD1; SZ95-SCD1-HiBit cells) [nM] | Emax (SZ95 sebocytes; [1]) [%] | Emax (SZ95 sebocytes; [2]) [%] | Emax (SCD1; [3]) [%] | Emax (SCD1; [4]) [%]
1 | CC(C)CS(=O)(=O)c1ccccc1Oc1ccc(-c2noc(CN3C(=O)N(CCC4(O)CCOCC4)C(C)(C)C3=O)n2)cc1C(F)(F)F [Compound 6, 1-(2-(4-hydroxytetrahydro-2H-pyran-4-yl)ethyl)-3-((3-(4-(2-(isobutylsulfonyl)phenoxy)-3-(trifluoromethyl)phenyl)-1,2,4-oxadiazol-5-yl)methyl)-5,5-dimethylimidazolidine-2,4-dione] | 37.5 | 43.6 | 101 | 96.7 | 69.8 | 66.4
2 | CC(C)N(C)S(=O)(=O)c1ccccc1Oc1ccc(-c2noc(CN3C(=O)N(CCN4CCOCC4)C4(CCN(C5CCC5)CC4)C3=O)n2)cc1C(F)(F)F [Compound 11, 2-(4-(5-((8-cyclobutyl-1-(2-morpholinoethyl)-2,4-dioxo-1,3,8-triazaspiro[4.5]decan-3-yl)methyl)-1,2,4-oxadiazol-3-yl)-2-(trifluoromethyl)phenoxy)-N-isopropyl-N-methylbenzenesulfonamide] | ≤ 4.6 | 0.058 | 140 | 134 | 95.9 | 91.2
3 | O=C1N(Cc2nc(-c3ccc(Oc4ccccc4C(F)(F)F)c(C(F)(F)F)c3)no2)C(=O)C2(CCN(C3CCC3)CC2)N1CCC1CCOCC1 [Compound 12, 8-cyclobutyl-1-(2-(tetrahydro-2H-pyran-4-yl)ethyl)-3-((3-(3-(trifluoromethyl)-4-(2-(trifluoromethyl)phenoxy)phenyl)-1,2,4-oxadiazol-5-yl)methyl)-1,3,8-triazaspiro[4.5]decane-2,4-dione] | ≤ 4.6 | 0.081 | 130 | 125 | 81.9 | 77.9
4 | O=C1N(Cc2nc(-c3ccc(Oc4ccccc4C(F)(F)F)c(C(F)(F)F)c3)no2)C(=O)C2(CCN(C3CCC3)CC2)N1CCN1CCOCC1 [Compound 13, 8-cyclobutyl-1-(2-morpholinoethyl)-3-((3-(3-(trifluoromethyl)-4-(2-(trifluoromethyl)phenoxy)phenyl)-1,2,4-oxadiazol-5-yl)methyl)-1,3,8-triazaspiro[4.5]decane-2,4-dione] | ≤ 4.6 | 0.102 | 94.5 | 90.7 | 82.2 | 78.2
5 | CC(COc1ccc(-c2noc(CN3C(=O)N(CCN4CCOCC4)C4(CCN(C5CCC5)CC4)C3=O)n2)cc1C(F)(F)F)(C(F)(F)F)C(F)(F)F [Compound 14, 8-cyclobutyl-1-(2-morpholinoethyl)-3-((3-(4-(3,3,3-trifluoro-2-methyl-2-(trifluoromethyl)propoxy)-3-(trifluoromethyl)phenyl)-1,2,4-oxadiazol-5-yl)methyl)-1,3,8-triazaspiro[4.5]decane-2,4-dione] | ≤ 4.6 | 0.241 | 130 | 125 | 91 | 86.5
6 | CS(=O)(=O)c1ccccc1Oc1ccc(-c2noc(CN3C(=O)N(CCN4CCOCC4)C4(CCN(C5CCC5)CC4)C3=O)n2)cc1C(F)(F)F [Compound 15, 8-cyclobutyl-3-((3-(4-(2-(methylsulfonyl)phenoxy)-3-(trifluoromethyl)phenyl)-1,2,4-oxadiazol-5-yl)methyl)-1-(2-morpholinoethyl)-1,3,8-triazaspiro[4.5]decane-2,4-dione] | ≤ 4.6 | 0.101 | 121 | 116 | 88.3 | 84
7 | CC(C)(C)c1ccccc1Oc1ccc(-c2noc(CN3C(=O)N(CCN4CCOCC4)C4(CCN(C5CCC5)CC4)C3=O)n2)cc1C(F)(F)F [Compound 16, 3-((3-(4-(2-(tert-butyl)phenoxy)-3-(trifluoromethyl)phenyl)-1,2,4-oxadiazol-5-yl)methyl)-8-cyclobutyl-1-(2-morpholinoethyl)-1,3,8-triazaspiro[4.5]decane-2,4-dione] | ≤ 4.6 | 0.116 | 146 | 140 | 94.8 | 90.2

Second part, led by results:

Row | EC50 (SZ95 sebocytes; SZ95 cells) [nM] | EC50 (SCD1; SZ95-SCD1-HiBit cells) [nM] | Structure (SMILES) | Emax (SZ95 sebocytes; [1]) [%] | Emax (SZ95 sebocytes; [2]) [%] | Emax (SCD1; [3]) [%] | Emax (SCD1; [4]) [%]
8 | ≤ 4.6 | 0.056 | CC(C)N(C)S(=O)(=O)c1ccccc1Oc1ccc(-c2noc(CN3C(=O)N(CCC4CCOCC4)C(C)(C)C3=O)n2)cc1C(F)(F)F [Compound 5, 2-(4-(5-((4,4-dimethyl-2,5-dioxo-3-(2-(tetrahydro-2H-pyran-4-yl)ethyl)imidazolidin-1-yl)methyl)-1,2,4-oxadiazol-3-yl)-2-(trifluoromethyl)phenoxy)-N-isopropyl-N-methylbenzenesulfonamide] | 152 | 146 | 87.7 | 83.4
9 | ≤ 4.6 | 0.128 | CC(C)(C)c1ccccc1Oc1ccc(-c2noc(CN3C(=O)N(CCC4CCOCC4)C4(CCN(C5CCC5)CC4)C3=O)n2)cc1C(F)(F)F [Compound 7, 3-((3-(4-(2-(tert-butyl)phenoxy)-3-(trifluoromethyl)phenyl)-1,2,4-oxadiazol-5-yl)methyl)-8-cyclobutyl-1-(2-(tetrahydro-2H-pyran-4-yl)ethyl)-1,3,8-triazaspiro[4.5]decane-2,4-dione] | 110 | 105 | 90 | 85.6
10 | ≤ 4.6 | 3.3 | CC(C)CS(=O)(=O)c1ccccc1Oc1ccc(-c2noc(CN3C(=O)N(CCN4CCOCC4)C4(CCNCC4)C3=O)n2)cc1C(F)(F)F [Compound 9, 3-((3-(4-(2-(isobutylsulfonyl)phenoxy)-3-(trifluoromethyl)phenyl)-1,2,4-oxadiazol-5-yl)methyl)-1-(2-morpholinoethyl)-1,3,8-triazaspiro[4.5]decane-2,4-dione] | 147 | 142 | 98.1 | 93.3
11 | ≤ 4.6 | 0.079 | CC(C)CS(=O)(=O)c1ccccc1Oc1ccc(-c2noc(CN3C(=O)N(CCN4CCOCC4)C4(CCN(C)CC4)C3=O)n2)cc1C(F)(F)F [Compound 10, 3-((3-(4-(2-(isobutylsulfonyl)phenoxy)-3-(trifluoromethyl)phenyl)-1,2,4-oxadiazol-5-yl)methyl)-8-methyl-1-(2-morpholinoethyl)-1,3,8-triazaspiro[4.5]decane-2,4-dione] | 129 | 124 | 111 | 106
